Experimental findings from patent US20220112187A1, “PYRAZOLOPYRIDINE AMINE COMPOUNDS FOR THE TREATMENT OF AUTOIMMUNE DISEASE” (Hoffmann-La Roche Inc., priority 2018, published 2022) are described below.

Some results are limits rather than exact numbers.

The assay deals with T1, human TLR9 (Homo sapiens, UniProt Q9NR96).
T1 sequence (Q9NR96 26-1032): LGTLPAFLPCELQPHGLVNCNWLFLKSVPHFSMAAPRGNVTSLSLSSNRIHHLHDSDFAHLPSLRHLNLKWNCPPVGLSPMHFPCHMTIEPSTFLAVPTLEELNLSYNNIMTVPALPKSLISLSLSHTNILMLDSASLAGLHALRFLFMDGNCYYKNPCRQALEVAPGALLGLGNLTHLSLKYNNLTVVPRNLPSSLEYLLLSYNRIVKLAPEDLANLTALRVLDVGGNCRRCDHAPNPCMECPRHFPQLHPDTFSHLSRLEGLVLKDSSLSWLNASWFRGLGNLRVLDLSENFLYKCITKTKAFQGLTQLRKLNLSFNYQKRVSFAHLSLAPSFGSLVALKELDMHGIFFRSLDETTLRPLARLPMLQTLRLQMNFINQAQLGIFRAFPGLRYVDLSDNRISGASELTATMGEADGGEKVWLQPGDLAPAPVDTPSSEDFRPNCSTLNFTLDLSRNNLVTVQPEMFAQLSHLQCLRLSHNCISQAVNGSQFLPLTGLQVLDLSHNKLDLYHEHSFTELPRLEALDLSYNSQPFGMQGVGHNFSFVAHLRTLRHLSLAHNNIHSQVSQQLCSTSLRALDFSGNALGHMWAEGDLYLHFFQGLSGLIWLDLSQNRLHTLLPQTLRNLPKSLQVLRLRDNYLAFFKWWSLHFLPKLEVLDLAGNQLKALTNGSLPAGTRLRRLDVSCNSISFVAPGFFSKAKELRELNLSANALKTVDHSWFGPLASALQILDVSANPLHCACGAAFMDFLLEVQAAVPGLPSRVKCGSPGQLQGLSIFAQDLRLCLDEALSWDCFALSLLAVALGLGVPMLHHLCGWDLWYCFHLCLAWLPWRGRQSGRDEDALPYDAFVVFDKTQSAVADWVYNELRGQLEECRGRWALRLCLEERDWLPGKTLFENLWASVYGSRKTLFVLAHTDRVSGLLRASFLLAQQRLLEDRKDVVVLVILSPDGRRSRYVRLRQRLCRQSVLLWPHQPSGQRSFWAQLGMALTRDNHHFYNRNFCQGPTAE
Briefly: HEK293-Blue-hTLR-9 cells assay (SEAP reporter, ODN2006 stimulation). Format: cell-based. Particulars: HEK293-Blue-hTLR9 cells, ODN2006 ligand, 20 hrs incubation. The source says:
A stable HEK293-Blue-hTLR-9 cell line was purchased from InvivoGen (Cat. #: hkb-htlr9, San Diego, Calif., USA). These cells were originally designed for studying the stimulation of human TLR9 by monitoring the activation of NF-κB. A SEAP (secreted embryonic alkaline phosphatase) reporter gene was placed under the control of the IFN-β minimal promoter fused to five NF-κB and AP-1-binding sites. The SEAP was induced by activating NF-κB and AP-1 via stimulating HEK-Blue hTLR9 cells with TLR9 ligands. Therefore the reporter expression was declined by TLR9 antagonist under the stimulation of a ligand, such as ODN2006 (Cat. #: tlr1-2006-1, Invivogen, San Diego, Calif., USA), for incubation of 20 hrs. The cell culture supernatant SEAP reporter activity was determined using QUANTI-Blue™ kit (Cat. #: rep-qb1, Invivogen, San Diego, Calif., USA) at a wavelength of 640 nm, a detection medium that turns purple or blue in the presence of alkaline phosphatase.
HEK293-Blue-hTLR9 cells were incubated at a density of 250,000˜450,000 cells/mL in a volume of 170 μL in a 96-well plate in Dulbecco's Modified Eagle's medium (DMEM) containing 4.5 g/L glucose, 50 U/mL penicillin, […], […], 2 mM L-glutamine, 10% (v/v) heat-inactivated fetal bovine serum with addition of 20 μL test compound in a serial dilution in the presence of final DMSO at 1% and 10 μL of 20 uM ODN2006 in above DMEM, perform incubation under 37° C. in a CO2 incubator for 20 hrs. Then 20 μL of the supernatant from each well was incubated with 180 μL Quanti-blue substrate solution at 37° C. for 2 hrs and the absorbance was read at 620-655 nm using a spectrophotorneter. The signalling pathway that TLR9 activation leads to downstream NF-κB activation has been widely accepted, and therefore similar reporter assay was modified for evaluating TLR9 antagonist.
In turn, `C[C@@H]1CN(c2ccc(C#N)n3nccc23)C[C@H](CN2CCCC3(CCNC3)C2)O1` (stereo partly drawn) [Example 44, 4-[(2S,6R)-2-(2,7-diazaspiro[4.5]decan-7-ylmethyl)-6-methyl-morpholin-4-yl]pyrazolo[1,5-a]pyridine-7-carbonitrile] came in with an IC50 of 110 nM.

`C[C@@H]1CN(c2ccc(C#N)n3nccc23)C[C@H](CN2CCCC3CNCC32)O1` (stereo partly drawn) [Example 61, 4-[(2S,6R)-2-(2,3,4,4a,5,6,7,7a-octahydropyrrolo[3,4-b]pyridin-1-ylmethyl)-6-methyl-morpholin-4-yl]pyrazolo[1,5-a]pyridine-7-carbonitrile] had an IC50 of 6100 nM.

`C[C@@H]1CN(c2ccc(C#N)n3nccc23)C[C@H](CN2CCC(N)C(F)(F)C2)O1` (stereo partly drawn) [Example 34, 4-[(2S,6R)-2-[(4-amino-3,3-difluoro-1-piperidyl)methyl]-6-methyl-morpholin-4-yl]pyrazolo[1,5-a]pyridine-7-carbonitrile] had an IC50 of 99000 nM. This IC50 is about 16-fold higher than that of the compound before.

For the compound `C[C@@H]1CN(c2ccc(C#N)n3nccc23)C[C@H](CN2CCN[C@H](c3ccccc3)C2)O1` [Example 38, 4-[(2R,6S)-2-methyl-6-[[(3R)-3-phenylpiperazin-1-yl]methyl]morpholin-4-yl]pyrazolo[1,5-a]pyridine-7-carbonitrile], the IC50 was found to be 1900 nM.

As to `C[C@@H]1CN(c2ccc(C#N)n3nccc23)C[C@H](CN2CCCC3NCCCC32)O1` (stereo partly drawn) [Example 64, 4-[(2S,6R)-2-(3,4,4a,5,6,7,8,8a-octahydro-2H-1,5-naphthyridin-1-ylmethyl)-6-methyl-morpholin-4-yl]pyrazolo[1,5-a]pyridine-7-carbonitrile], the midpoint of inhibition, the IC50, lay at 2200 nM.

In the case of `C[C@@H]1CN(c2ccc(C#N)n3nccc23)C[C@H](CN2CC3CCNCC3C2)O1` (stereo partly drawn) [Example 49, 4-[(2S,6R)-2-(1,3,3a,4,5,6,7,7a-octahydropyrrolo[3,4-c]pyridin-2-ylmethyl)-6-methyl-morpholin-4-yl]pyrazolo[1,5-a]pyridine-7-carbonitrile], inhibition was half-maximal at 120 nM (IC50).

Turning to `C[C@@H]1CN(c2ccc(C#N)n3nccc23)C[C@H](CN2CCC3(CCCNC3)C2)O1` (stereo partly drawn) [Example 25, 4-[(2S,6R)-2-(2,9-diazaspiro[4.5]decan-2-ylmethyl)-6-methyl-morpholin-4-yl]pyrazolo[1,5-a]pyridine-7-carbonitrile], half-maximal inhibition (IC50) required 88 nM.

With `C[C@@H]1CN(c2ccc(C#N)n3nccc23)C[C@H](CN2CC3(CCNC3)CC2=O)O1` (stereo partly drawn) [Example 20, 4-[(2R,6R)-2-methyl-6-[(3-oxo-2,7-diazaspiro[4.4]nonan-2-yl)methyl]morpholin-4-yl]pyrazolo[1,5-a]pyridine-7-carbonitrile], the midpoint of inhibition, the IC50, lay at 12000 nM.

In turn, `C[C@@H]1CN(c2ccc(C#N)n3nccc23)C[C@H](CN2CCCC3(CCCNC3)C2)O1` (stereo partly drawn) [Example 23, 4-[(2S,6R)-2-(2,8-diazaspiro[5.5]undecan-2-ylmethyl)-6-methyl-morpholin-4-yl]pyrazolo[1,5-a]pyridine-7-carbonitrile] had an IC50 of 250 nM.

Turning to `C[C@@H]1CN(c2ccc(C#N)n3nccc23)C[C@H](CN2CCC3(CCNC3)CC2)O1` [Example 19, 4-[(2S,6R)-2-(2,8-diazaspiro[4.5]decan-8-ylmethyl)-6-methyl-morpholin-4-yl]pyrazolo[1,5-a]pyridine-7-carbonitrile], the IC50 amounted to 92 nM.

`C[C@@H]1CN(c2ccc(C#N)n3nccc23)C[C@H](CN2C3COCC2CC(N)C3)O1` (stereo partly drawn) [Example 58, 4-[(2S,6R)-2-[(7-amino-3-oxa-9-azabicyclo[3.3.1]nonan-9-yl)methyl]-6-methyl-morpholin-4-yl]pyrazolo[1,5-a]pyridine-7-carbonitrile] registered an IC50 of 390 nM. This IC50 lies about 4.2-fold higher than the previous one.

For the compound `C[C@@H]1CN(c2ccc(C#N)n3nccc23)C[C@H](CN2CC3CCC(C2)N3)O1` [Example 31, 4-[(2S,6R)-2-(3,8-diazabicyclo[3.2.1]octan-3-ylmethyl)-6-methyl-morpholin-4-yl]pyrazolo[1,5-a]pyridine-7-carbonitrile], the IC50 was 10000 nM.

Compound `C[C@@H]1CN(c2ccc(C#N)n3nccc23)C[C@H](CN2CCC(N3CCCCCC3)CC2)O1` [Example 4, 4-[(2S,6R)-2-[[4-(azepan-1-yl)-1-piperidyl]methyl]-6-methyl-morpholin-4-yl]pyrazolo[1,5-a]pyridine-7-carbonitrile] yielded an IC50 of 280 nM.

Turning to `C[C@@H]1CN(c2ccc(C#N)n3nccc23)C[C@H](CN2CCC23CNC3)O1` [Example 55, 4-[(2S,6R)-2-(1,6-diazaspiro[3.3]heptan-1-ylmethyl)-6-methyl-morpholin-4-yl]pyrazolo[1,5-a]pyridine-7-carbonitrile], the IC50 is 25000 nM.

With `C[C@@H]1CN(c2ccc(C#N)n3nccc23)C[C@H](CN2CC(N)C(F)(F)C2)O1` (stereo partly drawn) [Example 35, 4-[(2S,6R)-2-[(4-amino-3,3-difluoro-pyrrolidin-1-yl)methyl]-6-methyl-morpholin-4-yl]pyrazolo[1,5-a]pyridine-7-carbonitrile], the IC50 is > 100000 nM.

In the case of `C[C@@H]1CN(c2ccc(C#N)n3nccc23)C[C@H](CN2CC3CCC2CN3)O1` (stereo partly drawn) [Example 30, 4-[(2S,6R)-2-(2,5-diazabicyclo[2.2.2]octan-2-ylmethyl)-6-methyl-morpholin-4-yl]pyrazolo[1,5-a]pyridine-7-carbonitrile], the midpoint of inhibition, the IC50, lay at 3200 nM. This counts as single-digit micromolar.

Regarding `C[C@@H]1CN(c2ccc(C#N)n3nccc23)C[C@H](CN2CC3(CCNCC3)C2)O1` [Example 24, 4-[(2S,6R)-2-(2,7-diazaspiro[3.5]nonan-2-ylmethyl)-6-methyl-morpholin-4-yl]pyrazolo[1,5-a]pyridine-7-carbonitrile], the IC50 was 100 nM.

`C[C@@H]1CN(c2ccc(C#N)n3nccc23)C[C@H](CN2CC3CCCNC3C2)O1` (stereo partly drawn) [Example 45, 4-[(2S,6R)-2-(1,2,3,4,4a,5,7,7a-octahydropyrrolo[3,4-b]pyridin-6-ylmethyl)-6-methyl-morpholin-4-yl]pyrazolo[1,5-a]pyridine-7-carbonitrile]: the IC50 came out at 970 nM.

Turning to `C[C@@H]1CN(c2ccc(C#N)n3nccc23)C[C@H](CN2CCN(C3CCNCC3)CC2Cc2ccccc2)O1` (stereo partly drawn) [Example 77, 4-[(2S,6R)-2-[[2-benzyl-4-(4-piperidyl)piperazin-1-yl]methyl]-6-methyl-morpholin-4-yl]pyrazolo[1,5-a]pyridine-7-carbonitrile], the IC50 amounted to 150 nM.

With `C[C@@H]1CN(c2ccc(C#N)n3nccc23)C[C@H](CN2CCNC3(CC3)C2)O1` [Example 40, 4-[(2S,6R)-2-(4,7-diazaspiro[2.5]octan-7-ylmethyl)-6-methyl-morpholin-4-yl]pyrazolo[1,5-a]pyridine-7-carbonitrile], half-maximal inhibition (IC50) was put at 13000 nM.

The compound `C[C@@H]1CN(c2ccc(C#N)n3nccc23)C[C@H](CN2CC3(CCCNC3)C2)O1` [Example 10, 4-[(2S,6R)-2-(2,8-diazaspiro[3.5]nonan-2-ylmethyl)-6-methyl-morpholin-4-yl]pyrazolo[1,5-a]pyridine-7-carbonitrile] gave an IC50 of 80 nM.

On to `C[C@@H]1CN(c2ccc(C#N)n3nccc23)C[C@H](CN2CCC(N)(c3ccccc3)CC2)O1` [Example 73, 4-[(2S,6R)-2-[(4-amino-4-phenyl-1-piperidyl)methyl]-6-methyl-morpholin-4-yl]pyrazolo[1,5-a]pyridine-7-carbonitrile], for which the IC50 turned out to be 220 nM.

By IC50 is commonly meant the midpoint of a concentration-inhibition curve. A high value points to a need for much substance.
